Data as given in US7013836B1, “Enhancing maturation of oocytes in bivalves” (Board of Supervisors of Louisiana State University and …, priority 2002, dated 2006).
Where two headings read alike, the source gives them in different places. *1 amine or outer side, *2 acyl side, *3 side chain or, on linkers, in order; H or OH if unused. Where a SMILES comes first, the peptide text is derived from it. Bridges are numbered along the chain shown (N, C = ends). Roman numbers before positions name the chains, in order. [ ]: non-standard residue; d: D form. Actinocin(9to1) = Cc1c2oc3c(C)ccc(C(=O)[*:1])c3nc-2c(C(=O)[*:2])c(N)c1=O; NMeV = CN[C@H](C(=O)O)C(C)C; Sar = CNCC(=O)O

Columns and labels:
[1] = test system: pieces of ovary from the scallop; settings: cited from earlier work
C. gigas = settings: cited from earlier work
[2] = test system: zebra mussels (Dreissena polymorpha); settings: cited from earlier work
[3] = test system: triploid C. virginica oysters; test: Triploid oysters: sex, gonadal condition and oocyte yield by stripping after estradiol injection; assay type: in vivo, Crassostrea virginica; settings: 150 ng/gm wet weight
Description: In trials with 261 triploid C. virginica oysters that began on May 31 in Grand Isle, La., the oysters were notched and were then injected with 150 ng/gm wet weight estradiol 17β. Ten days later, the animals were sacrificed, and their sex and gonadal condition were determined. Of the 261 animals tested, 13 were confirmed female triploids. These 13 triploid females yielded a total of 6 million oocytes by traditional stripping techniques, which is not a high yield in comparison to diploid animals, but was high compared to untreated triploids.
For comparison, on May 6 of the following year, 165 animals selected from the same original cohort of triploid oysters were sacrificed without the estradiol treatment. […] While these observations were made one year apart, both sets of observations involved triploid animals sharing the same diploid parents. The estradiol-treated group was 2 years old at the time of observation, while the untreated group one year later was 3 years old. […] However, in support of the effectiveness of the treatment, it may be noted that the three-year-old, untreated animals were sacrificed at a time when the population of mature and spawning diploid animals in the same location was at its peak, whereas the two-year-old, estradiol-treated animals were examined when the number of mature and spawning diploids was in decline.

C. virginica = test: Spawning response of estradiol-17β-injected oysters to serotonin stimulus after normal spawning season; assay type: in vivo, Crassostrea virginica
Description: A series of initial experiments assayed the response of C. virginica to low doses of estradiol-17β. These trials were undertaken in August and September, at the end of the normal maturation and spawning season of this species on the Gulf coast. Experiments typically ran for two weeks following the injection of a single dose of estradiol-17β into the […] muscle. (Injections were made through a small hole drilled in the shell.) The estradiol dosage for each animal was calculated based on wet body tissue mass of the whole animal, as estimated from its shell length. (These estimates were based on linear regression from measurements of shell lengths and wet body mass from 62 mixed-sex oysters that had been harvested in July). […] (The normal physiological level is 1.5 ng per gram wet weight. So a 5× dosage is 7.5 ng per gram wet weight, […]) Responses to the estradiol treatment were based on visual assessment of gonadal condition, on the response of the excised whole animal to a solution of 0.01 mM 5-hydroxytryptamine during a 45 min treatment period, and on histological examination of samples of the oyster taken through the body mass containing the gonadal region.
The three trials summarized in Table 1 were analyzed using a yes/no non-parametric chi-squared analysis.

oysters = test: Presence of prominent genital canals 14 days after estradiol-17β injection; assay type: in vivo, Crassostrea virginica; settings: after 14 days, May
Description: In another experiment, conducted in May in Grand Isle, La., animals were injected either with 0 (control), 37.5 ng/g, or 74 ng/g of estradiol-17β. After 14 days, animals were evaluated using the traditional methodology of assaying the presence of prominent genital canals, indicative of mature animals that are ready to spawn. These animals were not subjected to serotonin treatment, but rather were sacrificed for histological examination to establish a somatic-gonadal ratio index. […] Data analysis was performed using GraphPad InStat software. The data reported in Table 2 are conservative, in the following sense: During the trial period, the water temperature decreased from 23° C. to 18° C., and then increased to 22° C., all within a thirty-six hour period. Such a temperature change is alone often sufficient to trigger spawning in the wild.

[4] = test system: ovarian pieces of the scallop; settings: isolated ovarian pieces in vitro; cited from earlier work
Japanese scallop = settings: in vivo; cited from earlier work
[5] = test system: scallop Patinopecten yessoensis; settings: intragonadal injection; cited from earlier work
[6] = Aug. 18, injection 75 ng per gram wet weight
[7] = Sep. 15, injection 7.5 ng per gram wet weight
[8] = Sep. 22, injection 15 ng per gram wet weight

prostaglandin F2α [PGF2α]
effect on serotonin-induced egg release ([1]; pieces of ovary in vitro): significantly inhibited the effect of serotonin

COc1ccc2c(c1)c(CC(=O)O)c(C)n2C(=O)c1ccc(Cl)cc1 [indomethacin]
effect on serotonin-induced egg release ([1]; PGE2 also present): did not inhibit serotonin-induced egg release

C[C@]12CC[C@@H]3c4ccc(OC(=O)c5ccccc5)cc4CC[C@H]3[C@@H]1CC[C@@H]2O [estradiol-3-benzoate]
response time following injection (C. gigas): about 50 days
gonadal-somatic index ratio (C. gigas; high dose injected into the gonad): promoted an increase in the gonadal-somatic index ratio

CNCCC(Oc1ccc(C(F)(F)F)cc1)c1ccccc1 (stereo not drawn) [fluoxetine]
induction of spawning [2]: can induce spawning in both sexes

Fc1ccc([C@@H]2CCNC[C@H]2COc2ccc3c(c2)OCO3)cc1 [paroxetine]
induction of spawning [2]: can induce spawning in both sexes

CCCCC[C@H](O)/C=C/[C@H]1[C@H](O)CC(=O)[C@@H]1C/C=C\CCCC(=O)O [PGE2, prostaglandin E2]
effect on serotonin-induced egg release ([1]; pieces of ovary in vitro): enhanced the effect of serotonin
release of eggs ([1]; pieces of ovary in vitro): did not induce egg release

C[C@]12CC[C@@H]3c4ccc(O)cc4CC[C@H]3[C@@H]1CC[C@@H]2O [estradiol-17β]
total oocytes yielded by traditional stripping ([3]; 13 triploid females, ten days after injection): 6 million oocytes
confirmed female triploids among animals tested ([3]; of 261 triploid oysters, untreated cohort of 165 had none): 13
Animals not responding to 5-hydroxytryptophan stimulus - % (C. virginica; [6]): 42%
Animals not responding to 5-hydroxytryptophan stimulus - no. (C. virginica; [6]): 6
Animals responding to 5-hydroxytryptophan stimulus - % (C. virginica; [6]): 58%
Animals responding to 5-hydroxytryptophan stimulus - no. (C. virginica; [6]): 8
Animals not responding to 5-hydroxytryptophan stimulus - % (C. virginica; [7]): 60%
Animals not responding to 5-hydroxytryptophan stimulus - no. (C. virginica; [7]): 12
Animals responding to 5-hydroxytryptophan stimulus - % (C. virginica; [7]): 40%
Animals responding to 5-hydroxytryptophan stimulus - no. (C. virginica; [7]): 8
Animals not responding to 5-hydroxytryptophan stimulus - % (C. virginica; [8]): 65%
Animals not responding to 5-hydroxytryptophan stimulus - no. (C. virginica; [8]): 21
Animals responding to 5-hydroxytryptophan stimulus - % (C. virginica; [8]): 35%
Animals responding to 5-hydroxytryptophan stimulus - no. (C. virginica; [8]): 11
number with prominent genital canals (oysters; dose 1 group, 37.5 ng/g): 11
number without prominent genital canals (oysters; dose 1 group, 37.5 ng/g): 38
percent with prominent genital canals (oysters; dose 1 group, 37.5 ng/g): 22%
percent without prominent genital canals (oysters; dose 1 group, 37.5 ng/g): 78%
number with prominent genital canals (oysters; dose 2 group, 74 ng/g): 18
number without prominent genital canals (oysters; dose 2 group, 74 ng/g): 35
percent with prominent genital canals (oysters; dose 2 group, 74 ng/g): 34%
percent without prominent genital canals (oysters; dose 2 group, 74 ng/g): 66%

CC(=O)Oc1ccccc1C(=O)O [aspirin]
effect on serotonin-induced egg release ([1]; PGE2 also present): did not inhibit serotonin-induced egg release
effect on the accelerating effect of estradiol-17β pre-incubation [4]: inhibited

CC[C@@H](CO)NC(=O)[C@@H]1C=C2c3cccc4c3c(cn4C)C[C@H]2N(C)C1 [Methysergide]
release of eggs ([1]; pieces of ovary in vitro): inhibited the release of eggs

Cc1c2oc3c(C)ccc(C(=O)N[C@@H]4C(=O)N[C@H](C(C)C)C(=O)N5CCC[C@H]5C(=O)N(C)CC(=O)N(C)[C@@H](C(C)C)C(=O)O[C@@H]4C)c3nc-2c(C(=O)N[C@@H]2C(=O)N[C@H](C(C)C)C(=O)N3CCC[C@H]3C(=O)N(C)CC(=O)N(C)[C@@H](C(C)C)C(=O)O[C@@H]2C)c(N)c1=O [actinomycin D] (I: T[dV]P[Sar][NMeV] / II: T[dV]P[Sar][NMeV]; ester I:1-I:C, II:1-II:C; linker I:N-II:N via Actinocin(9to1))
effect on the accelerating effect of estradiol-17β pre-incubation [4]: inhibited

C[C@]12C[C@H]3S[C@H]3C[C@@H]1CC[C@@H]1[C@@H]2CC[C@]2(C)[C@@H](O)CC[C@@H]12 [epitostanol]
increase of PGE2 and PGF2α in the ovary (Japanese scallop): inhibit the increase of PGE2 and PGF2α

COCCCC/C(=N\OCCN)c1ccc(C(F)(F)F)cc1 [fluvoxamine]
induction of spawning [2]: can induce spawning in both sexes

NCCc1c[nH]c2ccc(O)cc12 [serotonin, 5-hydroxytryptamine]
release of eggs ([1]; pieces of ovary in vitro): the number of released eggs increased significantly
induction of spawning [2]: induce both oocyte meiotic maturation and spawning
spawning [5]: stimulated spawning in both sexes
